The record followed here is US20030226169A1, “DNA sequences encoding antifungal proteins” (priority 1995, published 2003).

In data set [1] the test system is F culmorum. Kind of data set: Antifungal activity of combinations of Rs-AFP and 15-mer peptides. The data set is classed as cell-based, Fusarium culmorum. To be noted: 100 x MIC of Rs-AFP2 / MIC of Rs-AFP2/peptide combination; 15-mer peptide added at 20 μg/ml; SMF medium; BSA-coated plates; Rs-AFP2 alone = 100. The procedure: The 15-mer peptides were tested for their ability to affect the antifungal activity of the Rs-AFP2 protein (SEQ ID NO: 35). Each peptide was added at a subinhibitory concentration (20 μg/ml ) to a twofold dilution series of Rs-AFP2 (SEQ ID NO: 35) ranging from 20 μg/ml down to 0.15 μg/ml. In the control series only water was added.
The target fungus was F culmorum and the growth medium was SMF. In order to exclude the effect of differential binding of the peptides to the microplate wells, the plates were coated with bovine serum albumin. […] The relative specific activity is defined as one hundred times the MIC of Rs-AFP2 divided by the MIC of the Rs-AFP2/peptide combination. Data are based on duplicate tests.

For data set [2], the system named is Fusarium culmorum (IMI 180420). Kind of data set: Antifungal growth inhibition microplate assay (photospectrometry). Format: cell-based. To be noted: for increase of MIC value: 15-mer peptides, 50 mM KCl versus ½ PDB alone. The method, boiled down: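 Spores (2×10^4/ml) in half-strength potato dextrose broth exposed to test solution, incubated in the dark at room temperature for about 72 h (96 h for V. dahliae). Growth by OD595 minus 30-min reading; IC50 is 50% and MIC 100% growth inhibition.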

The nature of data set [3]: Solubility of peptide in water. Format: physicochemical. The following applies: dissolved at 2 mg/ml. As for the experimental part: Peptides insoluble in water were dissolved in 50% acetonitrile: 50% acetonitrile was added to the peptide to give a stock solution which could be further diluted with water for fungal growth assays. Fungal growth was not affected by the presence of acetonitrile at the maximum concentration tested ([…] in the test well).
Split 15-mer peptides were dissolved in sterile milli-Q water to a final concentration of 5 mg/ml. MPS 15-mer peptides were dissolved to a final concentration between 4 and 10 mg/ml using acetonitrile as solvent for those peptides insoluble in water. Split 6-, 9- and 12-mer Rs-AFP 1 peptides were dissolved to a final concentration of 2 mg/ml in 20% acetonitrile. Split 6-, 9- and 12-mer Rs-AFP2 peptides were dissolved to a final concentration of 2 mg/ml in sterile water except for peptides numbers 1 (SEQ ID NO: 133) and 83 (SEQ ID NO: 35, amino acids 37-45) which were dissolved in 50% acetonitrile and numbers 3, 4, 5, 25, 47, 52, 64, 69, 70, 73, 74, 77, 85 and 93 which were dissolved in 20% acetonitrile. Both Rs-AFP1 and Rs-AFP2 peptides were freeze-dried just before weighing. […] The foregoing peptides have the following sequence identifications: […]

Positions of bridges follow the written chain, without caps; N, C: chain ends. Residues, ends and D or L forms follow the SMILES beside them.

Consider `CC[C@H](C)[C@H](NC(=O)[C@H](CS)NC(=O)[C@H](CCCCN)NC(=O)[C@H](Cc1c[nH]cn1)NC(=O)[C@H](C)NC(=O)[C@@H]1CCCN1C(=O)[C@H](Cc1ccccc1)NC(=O)[C@@H](NC(=O)[C@H](Cc1ccc(O)cc1)NC(=O)[C@H](CC(N)=O)NC(=O)[C@H](CS)NC(=O)[C@H](CO)NC(=O)CNC(=O)[C@H](Cc1c[nH]cn1)NC(C)=O)C(C)C)C(=O)N[C@@H](CS)C(N)=O` [Peptide 9 (Rs-AFP2 15-mer), HGSCNYVFPAHKCIC] (Ac-HGSCNYVFPAHKCIC-NH2; N-terminus and C-terminus assumed), for which the “Relative Specific Antifungal Activity” value in data set [1] worked out at 450. Moreover, the “increase of MIC value” in data set [2] is recorded as around 8 fold.

With `CC[C@H](C)[C@H](NC(=O)[C@H](CS)NC(C)=O)C(=O)N[C@@H](CCCNC(=N)N)C(=O)N[C@@H](CC(C)C)C(=O)N[C@@H](CCC(=O)O)C(=O)N[C@@H](CCCCN)C(=O)N[C@@H](C)C(=O)N[C@@H](CCCNC(=N)N)C(=O)N[C@@H](Cc1c[nH]cn1)C(=O)NCC(=O)N[C@@H](CO)C(=O)N[C@@H](CS)C(=O)N[C@@H](CC(N)=O)C(=O)N[C@@H](Cc1ccc(O)cc1)C(=O)N[C@H](C(N)=O)C(C)C` [Peptide 7 (Rs-AFP2 15-mer), CIRLEKARHGSCNYV] (Ac-CIRLEKARHGSCNYV-NH2; N-terminus and C-terminus assumed), in data set [1], the “Relative Specific Antifungal Activity” value stood at 350. Moreover, in data set [2], the “increase of MIC value” was “twofold”.

`CC(=O)N[C@@H](CCC(=O)O)C(=O)N[C@@H](CCCCN)C(=O)N[C@@H](C)C(=O)N[C@@H](CCCNC(=N)N)C(=O)N[C@@H](Cc1c[nH]cn1)C(=O)NCC(=O)N[C@@H](CO)C(=O)N[C@@H](CS)C(=O)N[C@@H](CC(N)=O)C(=O)N[C@@H](Cc1ccc(O)cc1)C(=O)N[C@H](C(=O)N[C@@H](Cc1ccccc1)C(=O)N1CCC[C@H]1C(=O)N[C@@H](C)C(=O)N[C@@H](Cc1c[nH]cn1)C(N)=O)C(C)C` [Peptide 8 (Rs-AFP2 15-mer)]: the “Relative Specific Antifungal Activity” value in data set [1] is listed as 470. The “increase of MIC value” in data set [2] is “about 16 fold”.

Turning to `CC(=O)N[C@H]1CSSC[C@@H](C(N)=O)NC(=O)[C@H](CCCCN)NC(=O)[C@H](Cc2c[nH]cn2)NC(=O)[C@H](C)NC(=O)[C@@H]2CCCN2C(=O)[C@H](Cc2ccccc2)NC(=O)[C@H](C(C)C)NC(=O)[C@H](Cc2ccc(O)cc2)NC(=O)[C@H](CC(N)=O)NC1=O` [Loop 1, CNYVFPAHKC] (Ac-CNYVFPAHKC-NH2; disulfide 1-10), the solubility in water entry in data set [3] is “completely soluble in water”. For the same compound, in data set [2] (Table 8: Loop 1 and Rs-AFP2 15-mer peptides, 1/16 PDB), the “ANTIFUNGAL ACTIVITY, MIC” value stood at 2.5 µg/mL. Besides, in data set [2] (Table 9: Loop 1 and Rs-AFP2 15-mer peptides, 1/16 PDB), the “ANTIFUNGAL ACTIVITY, IC50” value was determined as 4 µg/mL.

As for `CC(=O)NCC(=O)N[C@H](C(=O)N[C@@H](Cc1c[nH]c2ccccc12)C(=O)N[C@@H](CO)C(=O)NCC(=O)N[C@H](C(=O)N[C@@H](CS)C(=O)NCC(=O)N[C@@H](CC(N)=O)C(=O)N[C@@H](CC(N)=O)C(=O)N[C@@H](CC(N)=O)C(=O)N[C@@H](C)C(=O)N[C@@H](CS)C(=O)N[C@@H](CCCCN)C(=O)N[C@@H](CC(N)=O)C(N)=O)C(C)C)[C@@H](C)O` [Peptide 3 (Rs-AFP2 15-mer)] (Ac-GTWSGVCGNNNACKN-NH2; N-terminus and C-terminus assumed), the “Relative Specific Antifungal Activity” value in data set [1] is recorded as 180.

As to `CC[C@H](C)[C@H](NC(=O)[C@H](CS)NC(=O)[C@H](CCC(N)=O)NC(=O)[C@H](CC(N)=O)NC(=O)[C@H](CCCCN)NC(=O)[C@H](CS)NC(C)=O)C(=O)N[C@@H](CCCNC(=N)N)C(=O)N[C@@H](CC(C)C)C(=O)N[C@@H](CCC(=O)O)C(=O)N[C@@H](CCCCN)C(=O)N[C@@H](C)C(=O)N[C@@H](CCCNC(=N)N)C(=O)N[C@@H](Cc1c[nH]cn1)C(=O)NCC(=O)N[C@@H](CO)C(N)=O` [Peptide 6 (Rs-AFP2 15-mer), CKNQCIRLEKARHGS] (Ac-CKNQCIRLEKARHGS-NH2; N-terminus and C-terminus assumed), in data set [1], the “Relative Specific Antifungal Activity” value is recorded as 300. The “increase of MIC value” in data set [2] was “twofold”.
